From US9988429B2, “Glucagon analogues” (Zealand Pharma A/S, priority 2013, dated 2018)
Starred links: 1 amine or outer side, 2 acyl side, 3 side chain; linkers in the order of their positions; H or OH if unused. Non-standard residues stand in square brackets, D forms with d. Residues, ends and D or L forms follow the SMILES beside them. Groups on a side chain read outwards from the residue. *: point of attachment. γGlu = O=C(O)[C@H](CCC(=O)[*:2])N[*:1]; Palmitoyl = CCCCCCCCCCCCCCCC(=O)*; Ac3c = NC1(C(=O)O)CC1

Target: T1, human glucagon-like peptide 1 receptor (GLP-1R) (Homo sapiens, UniProt P43220)
T1 construct: expressed in transfected cells
T1 sequence (P43220 24-463): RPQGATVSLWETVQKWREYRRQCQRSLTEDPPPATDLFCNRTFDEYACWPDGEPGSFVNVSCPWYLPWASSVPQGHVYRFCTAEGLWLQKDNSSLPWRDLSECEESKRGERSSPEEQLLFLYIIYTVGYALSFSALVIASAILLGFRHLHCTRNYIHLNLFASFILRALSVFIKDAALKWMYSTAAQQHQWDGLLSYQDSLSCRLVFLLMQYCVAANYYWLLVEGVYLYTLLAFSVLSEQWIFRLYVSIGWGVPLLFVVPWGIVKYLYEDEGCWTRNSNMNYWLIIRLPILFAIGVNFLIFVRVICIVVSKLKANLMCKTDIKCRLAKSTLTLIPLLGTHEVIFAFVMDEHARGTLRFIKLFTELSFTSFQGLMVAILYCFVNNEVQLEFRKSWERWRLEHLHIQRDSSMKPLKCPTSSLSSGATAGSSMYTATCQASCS
Assay: GLP-1 receptor efficacy assay (cAMP AlphaScreen, CHO cells)
Type: cell-based
Conditions: for Ratio GLP-1/Glucagon: EC50 [GLP-1R] / EC50 [Glucagon-R], human receptors in CHO-K1; for EC50: cAMP formation, CHO cells expressing human GLP-1-R, read-out: EC50 hGLP-1R CHO-K1
Procedure: The mammalian expression vectors encoding the Glucagon-R or the GLP-1-R were transfected into Chinese hamster ovary (CHO) cells by the Attractene method. Stably expressing clones were obtained by Zeocin selection (250 μg/mL) upon limited dilution of cells resistant to the selection pressure. […] One Glucagon-R expressing clone and one GLP-1-R expressing clone were chosen for compound profiling.
CHO cells expressing the human Glucagon-R, or human GLP-1-R were seeded 24 hours prior to the assay at 30,000 cells per well in 96-well microtiter plates in culture in 100 μl growth medium. On the day of analysis, growth medium was removed and the cells were washed once with 200 μl of assay buffer (Krebs-Ringer-buffer—KRBH). The buffer was removed and the cells were incubated for 15 min at room temperature in 10 μl KRBH (KRBH+10 mM HEPES, 5 mM NaHCO3, 0.1% (V/V) BSA) with 0.1 mM IBMX in deionized water containing increasing concentrations of test peptides. The reaction was stopped by the addition of lysis buffer (0.1% w/v BSA, 5 mM HEPES, 0.3% v/v Tween-20). After cell lysis for 10 min at room temperature, lysates were transferred to 384-well plates and 10 μl of acceptor/donorbead mixture as contained in the AlphaScreen™ cAMP Functional Assay Kit was added. After one hour of incubation at room temperature in the dark, the cAMP content was determined applying the AlphaScreen™ cAMP Functional Assay Kit from Perkin-Elmer according to manufacturer instructions. […] The GLP-1/glucagon ratio is calculated as defined earlier.

Ratio GLP-1/Glucagon | EC50 [nM] | SMILES
2.26 | – | CCCCCCCCCCCCCCCC(=O)N[C@@H](CCC(=O)NCCCC[C@H](NC(=O)[C@H](CO)NC(=O)[C@H](CC(=O)O)NC(=O)[C@H](CC(C)C)NC(=O)[C@H](Cc1ccc(O)cc1)NC(=O)[C@H](CCCCN)NC(=O)[C@H](CO)NC(=O)[C@H](Cc1ccc(O)cc1)NC(=O)[C@H](CC(=O)O)NC(=O)[C@H](CO)NC(=O)[C@@H](NC(=O)[C@H](Cc1ccccc1)NC(=O)[C@@H](NC(=O)CNC(=O)[C@H](CCC(N)=O)NC(=O)[C@H](C)NC(=O)[C@@H](N)Cc1c[nH]cn1)[C@@H](C)O)[C@@H](C)O)C(=O)N[C@@H](C)C(=O)N[C@@H](C)C(=O)N[C@@H](Cc1c[nH]cn1)C(=O)N[C@@H](CC(=O)O)C(=O)N[C@@H](Cc1ccccc1)C(=O)N[C@H](C(=O)N[C@@H](CCC(=O)O)C(=O)N[C@@H](Cc1c[nH]c2ccccc12)C(=O)N[C@@H](CC(C)C)C(=O)N[C@@H](CC(C)C)C(=O)N[C@@H](CO)C(=O)N[C@@H](C)C(N)=O)C(C)C)C(=O)O [Compound 1]
3.83 | – | CCCCCCCCCCCCCCCC(=O)N[C@@H](CCC(=O)NCCCC[C@H](NC(=O)[C@H](CO)NC(=O)[C@H](CC(=O)O)NC(=O)[C@H](CC(C)C)NC(=O)[C@H](Cc1ccc(O)cc1)NC(=O)[C@H](CCCCN)NC(=O)[C@H](CO)NC(=O)[C@H](Cc1ccc(O)cc1)NC(=O)[C@H](CC(=O)O)NC(=O)[C@H](CO)NC(=O)[C@@H](NC(=O)[C@H](Cc1ccccc1)NC(=O)[C@@H](NC(=O)CNC(=O)[C@H](CCC(N)=O)NC(=O)[C@H](CO)N(C)C(=O)[C@@H](N)Cc1c[nH]cn1)[C@@H](C)O)[C@@H](C)O)C(=O)N[C@@H](C)C(=O)N[C@@H](C)C(=O)N[C@@H](Cc1c[nH]cn1)C(=O)N[C@@H](CC(=O)O)C(=O)N[C@@H](Cc1ccccc1)C(=O)N[C@H](C(=O)N[C@@H](CCC(=O)O)C(=O)N[C@@H](Cc1c[nH]c2ccccc12)C(=O)N[C@@H](CC(C)C)C(=O)N[C@@H](CC(C)C)C(=O)N[C@@H](CO)C(=O)N[C@@H](C)C(N)=O)C(C)C)C(=O)O [Compound 2]
0.75 | – | CCCCCCCCCCCCCCCC(=O)N[C@@H](CCC(=O)NCCCC[C@H](NC(=O)[C@H](CO)NC(=O)[C@H](CC(=O)O)NC(=O)[C@H](CC(C)C)NC(=O)[C@H](Cc1ccc(O)cc1)NC(=O)[C@H](CCCCN)NC(=O)[C@H](CO)NC(=O)[C@H](Cc1ccc(O)cc1)NC(=O)[C@H](CC(=O)O)NC(=O)[C@H](CO)NC(=O)[C@@H](NC(=O)[C@H](Cc1ccccc1)NC(=O)[C@@H](NC(=O)CNC(=O)[C@H](Cc1c[nH]cn1)NC(=O)[C@H](C)NC(=O)[C@@H](N)Cc1c[nH]cn1)[C@@H](C)O)[C@@H](C)O)C(=O)N[C@@H](C)C(=O)N[C@@H](C)C(=O)N[C@@H](Cc1c[nH]cn1)C(=O)N[C@@H](CC(=O)O)C(=O)N[C@@H](Cc1ccccc1)C(=O)N[C@H](C(=O)N[C@@H](CCC(=O)O)C(=O)N[C@@H](Cc1c[nH]c2ccccc12)C(=O)N[C@@H](CC(C)C)C(=O)N[C@@H](CC(C)C)C(=O)N[C@@H](CO)C(=O)N[C@@H](C)C(N)=O)C(C)C)C(=O)O [Compound 6] (H-HAHGTFTSDYSKYLDSK([γGlu-Palmitoyl])AAHDFVEWLLSA-NH2)
0.58 | – | CCCCCCCCCCCCCCCC(=O)N[C@@H](CCC(=O)NCCCC[C@H](NC(=O)[C@H](CO)NC(=O)[C@H](CC(=O)O)NC(=O)[C@H](CC(C)C)NC(=O)[C@H](Cc1ccc(O)cc1)NC(=O)[C@H](CCCCN)NC(=O)[C@H](CO)NC(=O)[C@H](Cc1ccc(O)cc1)NC(=O)[C@H](CC(=O)O)NC(=O)[C@H](CO)NC(=O)[C@@H](NC(=O)[C@H](Cc1ccccc1)NC(=O)[C@@H](NC(=O)CNC(=O)[C@H](Cc1c[nH]cn1)NC(=O)[C@@H](C)NC(=O)[C@@H](N)Cc1c[nH]cn1)[C@@H](C)O)[C@@H](C)O)C(=O)N[C@@H](C)C(=O)N[C@@H](C)C(=O)N[C@@H](Cc1c[nH]cn1)C(=O)N[C@@H](CC(=O)O)C(=O)N[C@@H](Cc1ccccc1)C(=O)N[C@H](C(=O)N[C@@H](CCC(=O)O)C(=O)N[C@@H](Cc1c[nH]c2ccccc12)C(=O)N[C@@H](CC(C)C)C(=O)N[C@@H](CC(C)C)C(=O)N[C@@H](CO)C(=O)N[C@@H](C)C(N)=O)C(C)C)C(=O)O [Compound 7] (H-H[dA]HGTFTSDYSKYLDSK([γGlu-Palmitoyl])AAHDFVEWLLSA-NH2)
0.13 | – | CCCCCCCCCCCCCCCC(=O)N[C@@H](CCC(=O)NCCCC[C@H](NC(=O)[C@H](CO)NC(=O)[C@H](CC(=O)O)NC(=O)[C@H](CC(C)C)NC(=O)[C@H](Cc1ccc(O)cc1)NC(=O)[C@H](CCCCN)NC(=O)[C@H](CO)NC(=O)[C@H](Cc1ccc(O)cc1)NC(=O)[C@H](CC(=O)O)NC(=O)[C@H](CO)NC(=O)[C@@H](NC(=O)[C@H](Cc1ccccc1)NC(=O)[C@@H](NC(=O)CNC(=O)[C@H](Cc1c[nH]cn1)NC(=O)C1(NC(=O)[C@@H](N)Cc2c[nH]cn2)CC1)[C@@H](C)O)[C@@H](C)O)C(=O)N[C@@H](C)C(=O)N[C@@H](C)C(=O)N[C@@H](Cc1c[nH]cn1)C(=O)N[C@@H](CC(=O)O)C(=O)N[C@@H](Cc1ccccc1)C(=O)N[C@H](C(=O)N[C@@H](CCC(=O)O)C(=O)N[C@@H](Cc1c[nH]c2ccccc12)C(=O)N[C@@H](CC(C)C)C(=O)N[C@@H](CC(C)C)C(=O)N[C@@H](CO)C(=O)N[C@@H](C)C(N)=O)C(C)C)C(=O)O [Compound 8] (H-H[Ac3c]HGTFTSDYSKYLDSK([γGlu-Palmitoyl])AAHDFVEWLLSA-NH2)
– | 0.14 | CCCCCCCCCCCCCCCC(=O)N[C@@H](CCC(=O)NCCCC[C@H](NC(=O)[C@H](CCC(=O)O)NC(=O)[C@H](CC(=O)O)NC(=O)[C@H](CC(C)C)NC(=O)[C@H](Cc1ccc(O)cc1)NC(=O)[C@H](CCCCN)NC(=O)[C@H](CO)NC(=O)[C@H](Cc1ccc(O)cc1)NC(=O)[C@H](CC(=O)O)NC(=O)[C@H](CO)NC(=O)[C@@H](NC(=O)[C@H](Cc1ccccc1)NC(=O)[C@@H](NC(=O)CNC(=O)[C@H](CCC(N)=O)NC(=O)[C@H](C)NC(=O)[C@@H](N)Cc1c[nH]cn1)[C@@H](C)O)[C@@H](C)O)C(=O)N[C@@H](C)C(=O)N[C@@H](C)C(=O)N[C@@H](CCCCN)C(=O)N[C@@H](CC(=O)O)C(=O)N[C@@H](Cc1ccccc1)C(=O)N[C@H](C(=O)N[C@@H](CCC(=O)O)C(=O)N[C@@H](Cc1c[nH]c2ccccc12)C(=O)N[C@@H](CC(C)C)C(=O)N[C@@H](CCC(=O)O)C(=O)N[C@@H](CO)C(=O)N[C@@H](C)C(N)=O)[C@@H](C)CC)C(=O)O [Compound 11]
– | 0.14 | CCCCCCCCCCCCCCCC(=O)N[C@@H](CCC(=O)NCCCC[C@H](NC(=O)[C@H](CCC(=O)O)NC(=O)[C@H](CC(=O)O)NC(=O)[C@H](CC(C)C)NC(=O)[C@H](Cc1ccc(O)cc1)NC(=O)[C@H](CCCCN)NC(=O)[C@H](CO)NC(=O)[C@H](Cc1ccc(O)cc1)NC(=O)[C@H](CC(=O)O)NC(=O)[C@H](CO)NC(=O)[C@@H](NC(=O)[C@H](Cc1ccccc1)NC(=O)[C@@H](NC(=O)CNC(=O)[C@H](CCC(N)=O)NC(=O)[C@@H](C)NC(=O)[C@@H](N)Cc1c[nH]cn1)[C@@H](C)O)[C@@H](C)O)C(=O)N[C@@H](C)C(=O)N[C@@H](C)C(=O)N[C@@H](CCCCN)C(=O)N[C@@H](CC(=O)O)C(=O)N[C@@H](Cc1ccccc1)C(=O)N[C@H](C(=O)N[C@@H](CCC(=O)O)C(=O)N[C@@H](Cc1c[nH]c2ccccc12)C(=O)N[C@@H](CC(C)C)C(=O)N[C@@H](CCC(=O)O)C(=O)N[C@@H](CO)C(=O)N[C@@H](C)C(N)=O)[C@@H](C)CC)C(=O)O [Compound 12]
0.07 | – | CCCCCCCCCCCCCCCC(=O)N[C@@H](CCC(=O)NCCCC[C@H](NC(=O)[C@H](CCC(=O)O)NC(=O)[C@H](CC(=O)O)NC(=O)[C@H](CC(C)C)NC(=O)[C@H](Cc1ccc(O)cc1)NC(=O)[C@H](CCCCN)NC(=O)[C@H](CO)NC(=O)[C@H](Cc1ccc(O)cc1)NC(=O)[C@H](CC(=O)O)NC(=O)[C@H](CO)NC(=O)[C@@H](NC(=O)[C@H](Cc1ccccc1)NC(=O)[C@@H](NC(=O)CNC(=O)[C@H](CCC(N)=O)NC(=O)[C@@H]1CCCN1C(=O)[C@@H](N)Cc1c[nH]cn1)[C@@H](C)O)[C@@H](C)O)C(=O)N[C@@H](C)C(=O)N[C@@H](C)C(=O)N[C@@H](CCCCN)C(=O)N[C@@H](CC(=O)O)C(=O)N[C@@H](Cc1ccccc1)C(=O)N[C@H](C(=O)N[C@@H](CCC(=O)O)C(=O)N[C@@H](Cc1c[nH]c2ccccc12)C(=O)N[C@@H](CC(C)C)C(=O)N[C@@H](CCC(=O)O)C(=O)N[C@@H](CO)C(=O)N[C@@H](C)C(N)=O)[C@@H](C)CC)C(=O)O [Compound 13]
0.04 | – | CCCCCCCCCCCCCCCC(=O)N[C@@H](CCC(=O)NCCCC[C@H](NC(=O)[C@H](CCC(=O)O)NC(=O)[C@H](CC(=O)O)NC(=O)[C@H](CC(C)C)NC(=O)[C@H](Cc1ccc(O)cc1)NC(=O)[C@H](CCCCN)NC(=O)[C@H](CO)NC(=O)[C@H](Cc1ccc(O)cc1)NC(=O)[C@H](CC(=O)O)NC(=O)[C@H](CO)NC(=O)[C@@H](NC(=O)[C@H](Cc1ccccc1)NC(=O)[C@@H](NC(=O)CNC(=O)[C@H](CCC(N)=O)NC(=O)C1(NC(=O)[C@@H](N)Cc2c[nH]cn2)CCC1)[C@@H](C)O)[C@@H](C)O)C(=O)N[C@@H](C)C(=O)N[C@@H](C)C(=O)N[C@@H](CCCCN)C(=O)N[C@@H](CC(=O)O)C(=O)N[C@@H](Cc1ccccc1)C(=O)N[C@H](C(=O)N[C@@H](CCC(=O)O)C(=O)N[C@@H](Cc1c[nH]c2ccccc12)C(=O)N[C@@H](CC(C)C)C(=O)N[C@@H](CCC(=O)O)C(=O)N[C@@H](CO)C(=O)N[C@@H](C)C(N)=O)[C@@H](C)CC)C(=O)O [Compound 14]
